Ten compounds from patent US5001234A, “Cyclic hydrocarbons with an aminoalkyl sidechain” (The Upjohn Company, priority 1989, dated 1991) can be followed below.

Molecules are shown by their SMILES. Where a name gives a salt, the structure may show the parent alone.

One experiment relates to KKA^y mice with spontaneous diabetes. Description: Blood glucose lowering in the KKA^y mouse. It counts as in vivo. Details: key: Compounds that have been found to have a phospholipase A2 inhibitory or antidiabetic effect as determined by at least one of the above assays are indicated in the Examples and Preparations which follow by the notation "PLA2" and/or "diabetes" respectively; Compounds that have been found to have a phospholipase A2 inhibitory or antidiabetic effect as determined by at least one of the above assays are indicated in the Examples and Preparations which follow by the notation "PLA2" and/or "diabetes" respectively. The following applies: compound 1 mg/gram of chow, nonfasting blood glucose on day 4 of treatment. Here is the method: All KKA^y mice used for screening are produced and selected by methods previously outlined, T. Fujita et al., Diabetes, 32 804-10 (1983). Groups of 6 animals each are employed.
Pre-treatment nonfasting blood glucose (NFBG) samples are measured 5 days prior to the start of a screening run by previously described methodologies. These blood sugar values are used to place animals into groups with equal mean blood glucose concentrations and to eliminate any mice with a NFBG value <250 mg/dl. On day 0, compounds chosen to be run are incorporated into ground mouse chow (Purina 5015). Compounds are included at a rate of 1 mg/gram of chow. Generally, 300 g of drugs containing diet is prepared for each group. Mice receiving ground chow only are the negative control. Each screening run also uses ciglitazone (T. Fujita, et al., supra) as a positive control (0.5 to 1.0 mg/gram chow).
Initial body and food weights are taken on day 1. Food is placed in a crock which contains an adequate amount to last for the length of the study. In order to acclimate the mice from pelleted mouse chow to ground mouse chow, they are fed the ground chow for 9 days prior to use in the screen. On day 4 of treatment, a NFBG sample is again measured, as well as food and body weights. Food consumption measurements are used to determine an average mg/kg dose the mice received over the testing period, and to evaluate the compound's effect on food consumption.
3. Acceptance of a Screening Run and Determination of Activity
Acceptance and activity are determined by the following criteria:
This group must not show a significant change (p<0.05) from pre-to post-treatment. If there is a significant decrease in blood sugar the run is not valid.
This group must show a significant depression in blood sugar mean levels from pre- to post-treatment. A lack of activity in this group would also invalidate the run.
C. Negative Control vs. Positive Control
This contrast must be significant. It is a further assurance that both control groups performed as expected.
A compound's activity is based on several criteria:
(1) A significant decrease in blood sugar mean levels from pre- to post-treatment.
(2) Negative control vs. compound: This contrast allows one to determine if these groups are dissimilar, which is required for the compound to be considered active.
Turning to `COc1cc2c(cc1C)[C@H]1CC[C@]3(C)[C@@H](NCCc4ccc(S(N)(=O)=O)cc4)CC[C@H]3[C@@H]1CC2` [Example 7], the “antidiabetic effect (notation "diabetes")” value (“antidiabetic effect” for short) is given as “diabetes”. Same read-out and setting: to `COc1ccc2c(c1)CC[C@@H]1[C@@H]2CC[C@]2(C)[C@@H](NCc3cccs3)CC[C@@H]12` [Example 1, 3-Methoxy-17β-[(2-thienylmethyl)amino]-estra-1,3,5-(10)-triene] belongs “diabetes”; to `C=CCOc1ccc2c(c1)CC[C@@H]1[C@@H]2CC[C@]2(C)[C@@H](NCc3cccc(C(F)(F)F)c3)CC[C@@H]12` [Example 2, 3-Allyloxy-17β-[((3-trifluoromethyl)phenylmethyl)-amino-estra-1,3,5(10)-triene Fumarate], “diabetes”. Same read-out and setting: to `C[C@]12CC=CC[C@@H]1CC[C@@H]1[C@@H]2CC[C@]2(C)[C@@H](NCCc3ccc(S(N)(=O)=O)cc3)CC[C@@H]12` [Example 8] belongs “diabetes”. Same read-out and setting: to `COc1ccc2c(c1)C[C@@H](C)[C@@H]1[C@@H]2CC[C@]2(C)[C@@H](NCc3cccc(C(F)(F)F)c3)CC[C@@H]12` [Example 4, 3-Methoxy-7α-methyl-17β-[((3-trifluoromethyl)phenylmethyl)amino-estra-1,3,5(10)-triene Fumarate Hydrate] belongs “diabetes”; to `CN(CCc1ccc(S(N)(=O)=O)cc1)[C@H]1CC[C@H]2[C@@H]3CC[C@H]4CCCC[C@]4(C)[C@H]3CC[C@]12C` [Example 6], “diabetes”. Consider `COc1ccc2c(c1)CC[C@@H]1[C@@H]2[C@@H](O)C[C@]2(C)[C@@H](NCc3cccc(C(F)(F)F)c3)CC[C@@H]12` [Example 5], for which the “antidiabetic effect” value is “diabetes”.

For the compound `C[C@]12CC[C@@H]3c4ccc(OCCCO)cc4CC[C@H]3[C@@H]1CC[C@@H]2NCc1cccc(C(F)(F)F)c1` [Example 3], the “antidiabetic effect” value was “diabetes”.

For the next experiment, the system named is phospholipase A2. In words: Phospholipase A2 inhibition by at least one of two tests: inhibition of rat neutrophil aggregation, inhibition of hog pancreas PLA2. It counts as biochemical. Details: key: Compounds that have been found to have a phospholipase A2 inhibitory or antidiabetic effect as determined by at least one of the above assays are indicated in the Examples and Preparations which follow by the notation "PLA2" and/or "diabetes" respectively; Compounds that have been found to have a phospholipase A2 inhibitory or antidiabetic effect as determined by at least one of the above assays are indicated in the Examples and Preparations which follow by the notation "PLA2" and/or "diabetes" respectively. The note with it: found in at least one of the assays (rat neutrophil aggregation, FMLP; hog pancreas PLA2). Here is the method: Inhibition of Rat Neutrophil Aggregation
1. Method for Thioglycolate Broth Preparation
Weigh sufficient thioglycolate medium, USP grade, to prepare a 5% w/v solution in sterile water. Heat the solution for 10 minutes on a boiling water bath. Remove and allow the solution to cool to 20°-25°. Inject 10±0.5 ml intraperitoneally into Sprague-Dawley rats as described below.
2. Method for Rat Peritoneal Leukocyte Collection
Six (6) Sprague-Dawley, pathogen free, female rats (230-270 grams) are injected intraperitoneally with 10.0±0.5 ml thioglyco. late broth. 5% w/v […] prior to sacrifice. After sacrifice by cervical dislocation, leukocytes accumulated in the peritoneal cavity are collected by injecting 30 ml of sterile 0.9% w/v sodium chloride intraperitoneally and vigorously massaging the abdomen to assure uniform dispersion of the cells within the carcass. Use a pasteur pipet to remove approximately 20 ml of fluid with suspended cells from a small incision through the abodominal wall. Collect the cell suspension in plastic culture tubes.
3. Washing and Resuspension of Cells for Aggregation
Centrifuge the cell suspensions isolated above for 10 minutes at 1000 rpm (Sorvall RC.3, HG-4L rotor, 25° C.). Discard the supernatant. Resuspend the cells evenly in 0.9% NaCl to original volume, centrifuge a second time for 10 minutes at 1000 rpm. Discard the supernatant. […]
As for `CN(C)CCCO[C@H]1CC[C@H]2[C@@H](CC[C@@H]3[C@@H]2CC[C@]2(C)C(NCCCN)CC[C@@H]32)C1` (stereo partly drawn) [Example 10, N-[(3β,5α)-3-[3-(dimethylamino)propoxy]estran.17-yl]-1,3-diaminopropane], the “phospholipase A2 inhibitory effect (notation "PLA2")” value is listed as “PLA2”.

For `C[C@]12CC[C@H]3[C@@H](CC[C@H]4C[C@@H](OCCCN)CC[C@@H]43)[C@@H]1CCC2=O` [Preparation 8, N-(3β,5α)-3-(3-aminopropoxy)estran-17-one], the “phospholipase A2 inhibitory effect (notation "PLA2")” value was “PLA2”.
